According to US20040176431A1, “Antiproliferative 2-(sulfo-phenyl)-aminothiazole derivatives and pharmaceutical compositions, and methods for their use” (Pfizer, Inc., priority 2003, published 2004):
Where a name gives a salt, the structure may show the parent alone. Values belong to the molecule of their own block, whether it stands above or below them.

Experiments:
CDK2/cyclin A = molecular target: T1, CDK2/cyclin A (Homo sapiens, UniProt P24941); assay: Inhibition of CDK2/Cyclin A retinoblastoma kinase activity; format: biochemical; details: apparent Ki, Rb fragment substrate
T1 construct: made in house; host or cells: CDK2: insect cells (baculovirus); cyclin A: E. coli, then limited proteolysis
Method: Cyclin-dependent kinase activity was measured by quantifying the enzyme-catalyzed, time-dependent incorporation of radioactive phosphate from [^32P]ATP or [^33P]ATP into a protein substrate. Unless noted otherwise, assays were performed in 96-well plates in a total volume of 50 μL, in the presence of 10 mM HEPES (N-[2-hydroxyethyl]piperazine-N′-[2-ethanesulfonic acid]) (pH 7.4), 10 mM MgCl2, 25 μM adenosine triphosphate (ATP), 1 mg/mL ovalbumin, 5 μg/mL leupeptin, 1 mM dithiothreitol, 10 mM β-glycerophosphate, 0.1 mM sodium vanadate, 1 mM sodium fluoride, 2.5 mM ethylene glycol-bis(β-aminoethyl ether)-N,N,N′N′-tetraacetic acid (EGTA), 2% (v/v) dimethylsulfoxide, and 0.03-0.4 μCi [^32/33P]ATP per reaction. Reactions were initiated with enzyme, incubated at 30° C., and terminated after 20 minutes by the addition of ethylenediaminetetraacetic acid (EDTA) to 250 mM. The phosphorylated substrate was then captured on a nitrocellulose or phosphocellulose membrane using a 96-well filtration manifold, and unincorporated radioactivity was removed by repeated washing with 0.85% phosphoric acid. Radioactivity was quantified by exposing the dried membranes to a phosphorimager.
Inhibition was measured relative to control wells that contained all reaction components including 2% (v/v) DMSO but no compound, after subtraction of background radioactivity measured in the absence of enzyme. Apparent Ki values of discrete compounds were measured by assaying enzyme activity in the presence of different inhibitor compound concentrations and subtracting the background radioactivity measured in the absence of enzyme. The kinetic parameters (kcat, Km for ATP) were measured for each enzyme under the usual assay conditions by determining the dependence of initial rates on ATP concentration. Inhibition data were fit to an equation for competitive inhibition using Kaleidagraph (Synergy Software), or were fit to an equation for competitive tight-binding inhibition using the software KineTic (BioKin, Ltd.).
CDK2 was purified using published methodology (Rosenblatt et al., J. Mol. Biol., 230, 1317-1319 (1993)) from insect cells that had been infected with a baculovirus expression vector. Cyclin A was purified from E. coli cells expressing full-length recombinant cyclin A, and a truncated cyclin A construct was generated by limited proteolysis and purified as described previously (Jeffrey et al., Nature, 376, 313-320 (1995)). A complex of CDK2 and proteolyzed cyclin A was prepared and purified by gel filtration. The substrate for this assay was the same Rb substrate fragment used for the CDK4 assays, and the methodology of the CDK2/delta cyclin A and the CDK4/delta cyclin D3 assays was essentially the same, except that CDK2 was present at 10 nM or 19 nM. The duration of the assay was 60 or 75 minutes, during which the time-dependence of product formation was linear and initial rate conditions were met.

HCT-116 cells = assay: Inhibition of cell growth (MTT tetrazolium salt assay); format: cell-based; details: Homo sapiens; for IC50: read-out: HCT116 IC50; for IC90: read-out: HCT116 IC90
Method: Inhibition of cell growth was measured using the tetrazolium salt assay, which is based on the ability of viable cells to reduce 3-(4,5-dimethylthiazol-2-yl)-2,5-[2H]-diphenyltetrazolium bromide (MTT) to formazan (Mosmann, J. Immunol. Meth., 65, 55-63 (1983)). The water-insoluble purple formazan product was then detected spectrophotometrically. HCT-116 cells were grown in 96-well plates. Cells were plated in the appropriate medium at a volume of 135 μl/well in either McCoy's 5A Medium. Plates were incubated for four hours before addition of inhibitor compounds. Different concentrations of inhibitor compounds were added in 0.5% (v/v) dimethylsulfoxide (15 μL/well), and cells were incubated at 37° C. (5% CO2) for four to six days (depending on cell type). At the end of the incubation, MTT was added to a final concentration of 0.2 mg/mL, and cells were incubated for 4 hours more at 37° C. After centrifugation of the plates and removal of medium, the absorbance of the formazan (solubilized in dimethylsulfoxide) was measured at 540 nm. […] All results were compared to control cells treated only with 0.5% (v/v) dimethylsulfoxide.

CDK4/cyclin D3 = molecular target: T2, CDK4/cyclin D3 (Homo sapiens, UniProt P11802); assay: Inhibition of CDK4/Cyclin D retinoblastoma kinase activity; format: biochemical; details: apparent Ki, Rb fragment substrate
T2 construct: made in house; host or cells: insect cells (baculovirus co-infection)
Summary of the method: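 Human CDK4 with truncated cyclin D3 (1-264) from baculovirus-infected insect cells, 5 nM, phosphorylating His-tagged Rb fragment (386-928) with 25 μM [32P/33P]ATP in pH 7.4 HEPES/MgCl2, 2% DMSO, 30° C., 20 min (60 min for tight binders). Filter capture, phosphorimager; apparent Ki from competitive or tight-binding competitive fits.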

T2 sequence (P11802 whole entry, the tested form may be a part): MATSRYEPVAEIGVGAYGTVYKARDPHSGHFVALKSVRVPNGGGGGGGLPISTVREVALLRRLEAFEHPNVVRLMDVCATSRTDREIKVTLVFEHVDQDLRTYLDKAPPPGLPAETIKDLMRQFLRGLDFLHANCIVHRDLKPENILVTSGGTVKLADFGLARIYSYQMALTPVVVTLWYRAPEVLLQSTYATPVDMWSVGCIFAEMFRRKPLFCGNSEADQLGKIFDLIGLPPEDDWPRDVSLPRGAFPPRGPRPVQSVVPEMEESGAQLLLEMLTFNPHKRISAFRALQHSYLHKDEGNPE
T2 sequence (P30281 1-264 partner limits assumed): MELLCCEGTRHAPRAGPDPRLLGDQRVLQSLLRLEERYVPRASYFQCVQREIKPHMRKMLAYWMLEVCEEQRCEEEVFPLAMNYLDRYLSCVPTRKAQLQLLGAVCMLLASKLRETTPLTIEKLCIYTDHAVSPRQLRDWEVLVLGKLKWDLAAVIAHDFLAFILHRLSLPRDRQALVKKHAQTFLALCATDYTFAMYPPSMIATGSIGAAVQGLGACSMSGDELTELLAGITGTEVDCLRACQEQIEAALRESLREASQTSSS

Compound: Nc1nc(Nc2ccc(S(=O)(=O)NCCc3cccs3)cc2)sc1C(=O)c1c(F)cccc1F [A(23), 4-[4-Amino-5-(2,6-difluoro-benzoyl)-thiazol-2-ylamino]-N-(2-thiophen-2-yl-ethyl)-benzenesulfonamide]
- Ki (CDK2/cyclin A): 13 nM
- IC50 (HCT-116 cells): 440 nM
- IC90 (HCT-116 cells): 1200 nM
- Ki (CDK4/cyclin D3): 17 nM

Compound: CS(=O)(=O)c1cccc(Nc2nc(N)c(C(=O)c3c(Cl)cccc3Cl)s2)c1 [AA(1), 4-Amino-5-(2,6-dichloro-benzoyl)-2-(3-methanesulfonyl-phenylamino)-thiazole]
- Ki (CDK2/cyclin A): 430 nM

Compound: Nc1nc(Nc2ccc(S(=O)(=O)c3ccncc3)cc2)sc1C(=O)c1c(Cl)cccc1Cl [AA(3), 4-Amino-5-(2,6-dichlorobenzoyl)-2-[4-(pyridine-4-sulfonyl)-phenylamino]-thiazole]
- Ki (CDK2/cyclin A): 190 nM

Compound: CNS(=O)(=O)c1ccc(Nc2nc(N)c(C(=O)c3c(F)cccc3F)s2)cc1 [C(108)*, reference compound]
- IC50 (HCT-116 cells): 400 nM
- IC90 (HCT-116 cells): 1400 nM

Compound: CN(C)S(=O)(=O)c1ccc(Nc2nc(N)c(C(=O)c3c(F)cccc3F)s2)cc1 [C(109)*, reference compound]
- IC50 (HCT-116 cells): 1600 nM
- IC90 (HCT-116 cells): 3000 nM

Compound: Nc1nc(Nc2ccc(S(N)(=O)=O)cc2)sc1C(=O)c1c(F)cc(F)cc1F [C(115)*, reference compound]
- IC50 (HCT-116 cells): 980 nM
- IC90 (HCT-116 cells): 2100 nM

Compound: Nc1nc(Nc2ccc(S(=O)(=O)NCc3cc(Cl)ccc3Cl)cc2)sc1C(=O)c1c(F)cccc1F [Example A(7), 4-[4-Amino-5-(2,6-difluoro-benzoyl)-thiazol-2-ylamino]-N-(2,5-dichloro-benzyl)-benzenesulfonamide]
- Ki (CDK2/cyclin A): 11 nM
- Ki (CDK4/cyclin D3): 62 nM

Compound: Nc1nc(Nc2ccc(S(=O)(=O)NCc3ccco3)cc2)sc1C(=O)c1c(F)cccc1F [Example A(22), 4-[4-Amino-5-(2,6-difluoro-benzoyl)-thiazol-2-ylamino]-N-furan-2-ylmethyl-benzenesulfonamide]
- IC50 (HCT-116 cells): 240 nM
- IC90 (HCT-116 cells): 620 nM
- Ki (CDK4/cyclin D3): 22 nM

Compound: Nc1nc(Nc2ccc(Sc3ccccn3)cc2)sc1C(=O)c1c(Cl)cccc1Cl [W(2), 4-Amino-5-(2,6-dichloro-benzoyl)-2-[4-(pyridin-2-ylthio)-phenylamino]-thiazole]
- Ki (CDK2/cyclin A): 500 nM
- Ki (CDK4/cyclin D3): 190 nM

Compound: Nc1nc(Nc2ccc(S)cc2)sc1C(=O)c1c(Cl)cccc1Cl [X(1), 4-Amino-5-(2,6-dichloro-benzoyl)-2-(4-mercapto-phenylamino)-thiazole]
- Ki (CDK2/cyclin A): 520 nM

Compound: Nc1nc(Nc2cccc(S)c2)sc1C(=O)c1c(Cl)cccc1Cl [X(2)]
- Ki (CDK2/cyclin A): 1600 nM

Compound: C[S+]([O-])c1cccc(Nc2nc(N)c(C(=O)c3c(Cl)cccc3Cl)s2)c1 (centres unmarked) [Z(1), 4-Amino-5-(2,6-benzoyl)-2-(3-methanesulfinyl-phenylamino)-thiazole]
- Ki (CDK2/cyclin A): 450 nM

Further lines, results first:

- Ki (CDK2/cyclin A): 5 nM
- IC50 (HCT-116 cells): 1200 nM
- IC90 (HCT-116 cells): 2600 nM
- Ki (CDK4/cyclin D3): 18 nM
Compound: Nc1nc(Nc2ccc(S(=O)(=O)NCCc3ccccn3)cc2)sc1C(=O)c1c(F)cccc1F [A(24), 4-[4-Amino-5-(2,6-difluoro-benzoyl)-thiazol-2-ylamino]-N-(2-pyridin-2-yl-ethyl)-benzenesulfonamide]

- Ki (CDK2/cyclin A): 4.1 nM
- IC50 (HCT-116 cells): 3400 nM
- IC90 (HCT-116 cells): 5000 nM
- Ki (CDK4/cyclin D3): 16 nM
Compound: Nc1nc(Nc2ccc(S(=O)(=O)NCCCN3CCCC3=O)cc2)sc1C(=O)c1c(F)cccc1F [A(25), 4-[4-Amino-5-(2,6-difluoro-benzoyl)-thiazol-2-ylamino]-N-[3-(2-oxo-pyrrolidin-1-yl)-propyl]-benzenesulfonamide]

- Ki (CDK2/cyclin A): 2.9 nM
- IC50 (HCT-116 cells): 850 nM
- IC90 (HCT-116 cells): 3300 nM
- Ki (CDK4/cyclin D3): 3 nM
Compound: CCN(CC)CCCCNS(=O)(=O)c1ccc(Nc2nc(N)c(C(=O)c3c(F)cccc3F)s2)cc1 [A(26), 4-[4-Amino-5-(2,6-difluoro-benzoyl)-thiazol-2-ylamino]-N-(4-diethylamino-butyl)-benzenesulfonamide]

- Ki (CDK2/cyclin A): 4.6 nM
- IC50 (HCT-116 cells): 400 nM
- IC90 (HCT-116 cells): 1000 nM
- Ki (CDK4/cyclin D3): 57 nM
Compound: Nc1nc(Nc2ccc(S(=O)(=O)NCc3cccs3)cc2)sc1C(=O)c1c(F)cccc1F [A(27), 4-[4-Amino-5-(2,6-difluoro-benzoyl)-thiazol-2-ylamino]-N-thiophen-2-ylmethyl-benzenesulfonamide]

- Ki (CDK2/cyclin A): 2.6 nM
- IC50 (HCT-116 cells): 1200 nM
- IC90 (HCT-116 cells): 2800 nM
- Ki (CDK4/cyclin D3): 12 nM
Compound: Nc1nc(Nc2ccc(S(=O)(=O)NCCCCCO)cc2)sc1C(=O)c1c(F)cccc1F [A(28), 4-[4-Amino-5-(2,6-difluoro-benzoyl)-thiazol-2-ylamino]-N-(5-hydroxy-pentyl)-benzenesulfonamide]

- Ki (CDK2/cyclin A): < 5 nM
- IC50 (HCT-116 cells): 190 nM
- IC90 (HCT-116 cells): 560 nM
- Ki (CDK4/cyclin D3): 15 nM
Compound: Cc1ccc(CNS(=O)(=O)c2ccc(Nc3nc(N)c(C(=O)c4c(F)cccc4F)s3)cc2)s1 [A(29), 4-[4-Amino-5-(2,6-difluoro-benzoyl)-thiazol-2-ylamino]-N-(5-methyl-thiophen-2-ylmethyl)-benzenesulfonamide]

- Ki (CDK2/cyclin A): < 5 nM
- IC50 (HCT-116 cells): 310 nM
- IC90 (HCT-116 cells): 640 nM
- Ki (CDK4/cyclin D3): 9 nM
Compound: Cc1ccc(C(C)NS(=O)(=O)c2ccc(Nc3nc(N)c(C(=O)c4c(F)cccc4F)s3)cc2)o1 (centres unmarked) [A(30), 4-[4-Amino-5-(2,6-difluoro-benzoyl)-thiazol-2-ylamino]-N-[1-(5-methyl-furan-2-yl)-ethyl]-benzenesulfonamide]

- Ki (CDK2/cyclin A): < 5 nM
- IC50 (HCT-116 cells): 140 nM
- IC90 (HCT-116 cells): 380 nM
- Ki (CDK4/cyclin D3): 16 nM
Compound: Nc1nc(Nc2ccc(S(=O)(=O)NCCCc3ccccc3)cc2)sc1C(=O)c1c(F)cccc1F [A(32), 4-[4-Amino-5-(2,6-difluoro-benzoyl)-thiazol-2-ylamino]-N-(3-phenyl-propyl)-benzenesulfonamide]

- Ki (CDK2/cyclin A): < 10 nM
- IC50 (HCT-116 cells): 780 nM
- IC90 (HCT-116 cells): 1800 nM
- Ki (CDK4/cyclin D3): 5.1 nM
Compound: Nc1nc(Nc2ccc(S(=O)(=O)NCc3cc4ccccc4o3)cc2)sc1C(=O)c1c(F)cccc1F [A(34), 4-[4-Amino-5-(2,6-difluoro-benzoyl)-thiazol-2-ylamino]-N-benzofuran-2-ylmethyl-benzenesulfonamide]

- Ki (CDK2/cyclin A): 4.9 nM
- IC50 (HCT-116 cells): 1200 nM
- IC90 (HCT-116 cells): 3800 nM
- Ki (CDK4/cyclin D3): 35 nM
Compound: CC(C)CCCCNS(=O)(=O)c1ccc(Nc2nc(N)c(C(=O)c3c(F)cccc3F)s2)cc1 [A(37), 4-[4-Amino-5-(2,6-difluoro-benzoyl)-thiazol-2-ylamino]-N-(5-methyl-hexyl)-benzenesulfonamide]

- Ki (CDK2/cyclin A): 0.48 nM
- Ki (CDK4/cyclin D3): 3.9 nM
Compound: Cn1cncc1CNS(=O)(=O)c1ccc(Nc2nc(N)c(C(=O)c3c(F)cccc3F)s2)cc1 [A(38), 4-[4-Amino-5-(2,6-difluoro-benzoyl)-thiazol-2-ylamino]-N-(1-methyl-1H-imidazol-5-ylmethyl)-benzenesulfonamide Trifluoroacetic Acid Salt]

- Ki (CDK2/cyclin A): < 10 nM
- IC50 (HCT-116 cells): 900 nM
- IC90 (HCT-116 cells): 2000 nM
- Ki (CDK4/cyclin D3): 100 nM
Compound: Cc1ccc(CNS(=O)(=O)c2ccc(Nc3nc(N)c(C(=O)c4c(F)cc(F)cc4F)s3)cc2)o1 [B(1), 4-[4-Amino-5-(2,4,6-trifluoro-benzoyl)-thiazol-2-ylamino]-N-(5-methyl-furan-2-ylmethyl)-benzenesulfonamide]
